# Article PMC4715686 (Chemical biology & drug design, 2015)
# Key:
# [1] = Hep G2 cell viability, MTT assay; format: cell-based; settings: human
# [2] = system: T. brucei brucei 427 strain; experiment: Antitrypanosomal activity, Alamar blue assay; format: cell-based; settings: for IC50: Trypanosoma brucei, 24 h, read-out: IC50 T. brucei
# rhodesain = rhodesain (Trypanosoma brucei rhodesiense, UniProt Q95PM0); experiment: Rhodesain inhibition assay; format: biochemical, T. brucei rhodesiense
SMILES,"viability at 72 h, 20 µM [1] [%]",IC50 [2] [nM],IC50 (rhodesain) [nM],activity against T. brucei (in words) [2],selectivity for the parasite over Hep G2 cells (in words) ([2]; T. brucei vs Hep G2 cells),inhibitory activity against rhodesain (in words) (rhodesain)
"Nc1ccc(-c2nc3ccc(Cc4ccc5nc(-c6ccc(N)cc6)[nH]c5c4)cc3[nH]2)cc1 [Compound 1, 4,4′-[methylenebis(1H-benzimidazole-6,2-diyl)]-dianiline]",84.7 ± 5.79,5800 ± 1000,890 ± 100,,,
"O=C(c1ccccc1)c1ccc2[nH]c(-c3ccc(NC(=O)c4ccccc4Cl)cc3)nc2c1 [Compound 7, N-[4-(5-benzoyl-1H-benzimidazol-2-yl)phenyl]-2-chlorobenzamide]",86.2 ± 9.67,2830 ± 260,> 20000,active,considerable selectivity,did not display any inhibitory activity
